System: T1, LXR
T1 construct: fused on or other part: GST fused to the LBD in the FRET assay
Assay: Measured EC50 or IC50 for LXR (LXRα and/or LXRβ; assay and subtype not given)
Details: IC50 or EC50 class, subtype not specified
Experimental: Measured EC50 or IC50 for LXR, and FXR for Compounds of the Invention
LXR and FXR activities for various compounds of the invention are presented in the following table; those compounds with EC50 or IC50 values <10 μM for at least one of LXRα, LXRβ or FXR are considered to be active. In the following Table, IC50 or EC50 data is represented as follows: A<1 μM, B=1-10 μm, and C>10 μM.

| Structure (SMILES) | EC50 |
| --- | --- |
| O=C(OCc1ccccc1)c1ccc(OCc2cc(C(F)(F)F)nn2-c2ccccc2Cl)cc1 [Example 7, phenylmethyl 4-({[1-(2-chlorophenyl)-3-(trifluoromethyl)-1H-pyrazol-5-yl]methyl}oxy)benzoate] | > 10 µM |
| FC(F)(F)c1cc(COc2ccc(-n3cccc3)cc2)n(-c2ccccc2Cl)n1 [Example 8, 1-(2-chlorophenyl)-5-({[4-(1H-pyrrol-1-yl)phenyl]oxy}methyl)-3-(trifluoromethyl)-1H-pyrazole] | < 1 µM |
| O=C(O)c1cc2cc(OCc3cc(C(F)(F)F)nn3-c3ccccc3Cl)ccc2[nH]1 [Example 9, 5-({[1-(2-chlorophenyl)-3-(trifluoromethyl)-1H-pyrazol-5-yl]methyl}oxy)-1H-indole-2-carboxylic acid] | > 10 µM |
| CCOC(=O)c1cc2cc(OCc3cc(C(F)(F)F)nn3-c3ccccc3Cl)ccc2[nH]1 [Example 38, ethyl 5-({[1-(2-chlorophenyl)-3-(trifluoromethyl)-1H-pyrazol-5-yl]methyl}oxy)-1H-indole-2-carboxylate] | > 10 µM |
| CC(C)(C(=O)O)c1cccc(-c2ccc(OCc3cc(C(F)(F)F)nn3-c3ccccc3Cl)cc2)c1 [Example 92, 2-[4′-({[1-(2-chlorophenyl)-3-(trifluoromethyl)-1H-pyrazol-5-yl]methyl}oxy)biphenyl-3-yl]-2-methylpropanoic acid] | 1 to 10 µM |
| O=C(O)Cc1cccc(-c2ccc(OCc3cc(C(F)(F)F)nn3-c3ccccc3Cl)cc2)c1 [Example 93, [4′-({[1-(2-chlorophenyl)-3-(trifluoromethyl)-1H-pyrazol-5-yl]methyl}oxy)biphenyl-3-yl]acetic acid] | > 10 µM |
| O=C(Oc1cccc(OCc2cc(C(F)(F)F)nn2-c2ccccc2Cl)c1)c1ccccc1 [Example 95, 3-({[1-(2-chlorophenyl)-3-(trifluoromethyl)-1H-pyrazol-5-yl]methyl}oxy)phenyl benzoate] | > 10 µM |
| O=C(O)Cc1ccc(-c2ccc(OCc3cc(C(F)(F)F)nn3-c3ccccc3Cl)cc2)cc1 [Example 98, [4′-({[1-(2-chlorophenyl)-3-(trifluoromethyl)-1H-pyrazol-5-yl]methyl}oxy)biphenyl-4-yl]acetic acid] | > 10 µM |
| CS(=O)(=O)c1cccc(NC(=O)c2cc(C(F)(F)F)nn2-c2cc(Cl)ccc2Cl)c1 [Example 99, 1-(2,5-dichlorophenyl)-N-[3-(methylsulfonyl)phenyl]-3-(trifluoromethyl)-1H-pyrazole-5-carboxamide] | > 10 µM |
| O=C(NCc1cccc(C(F)(F)F)c1)c1cc(C(F)(F)F)nn1-c1cc(Cl)ccc1Cl [Example 100, 1-(2,5-dichlorophenyl)-3-(trifluoromethyl)-N-{[3-(trifluoromethyl)phenyl]methyl}-1H-pyrazole-5-carboxamide] | > 10 µM |
| CS(=O)(=O)c1ccc(CNC(=O)c2cc(C(F)(F)F)nn2-c2cc(Cl)ccc2Cl)cc1 [Example 101, 1-(2,5-dichlorophenyl)-N-{[4-(methylsulfonyl)phenyl]methyl}-3-(trifluoromethyl)-1H-pyrazole-5-carboxamide] | > 10 µM |
| O=C(NCc1cccc(Cl)c1)c1cc(C(F)(F)F)nn1-c1cc(Cl)ccc1Cl [Example 102, N-[(3-chlorophenyl)methyl]-1-(2,5-dichlorophenyl)-3-(trifluoromethyl)-1H-pyrazole-5-carboxamide] | > 10 µM |
| CS(=O)(=O)c1cccc(CNC(=O)c2cc(C(F)(F)F)nn2-c2ccccc2Cl)c1 [Example 103, 1-(2-chlorophenyl)-N-{[3-(methylsulfonyl)phenyl]methyl}-3-(trifluoromethyl)-1H-pyrazole-5-carboxamide] | > 10 µM |
| CC(C)Oc1ccccc1-n1nc(C(F)(F)F)cc1C(=O)NCc1cccc(C(F)(F)F)c1 [Example 104, 1-{2-[(1-methylethyl)oxy]phenyl}-3-(trifluoromethyl)-N-{[3-(trifluoromethyl)phenyl]methyl}-1H-pyrazole-5-carboxamide] | > 10 µM |
| CC(=O)c1cccc(NC(=O)Nc2cc(C(F)(F)F)nn2-c2ccccc2C(F)(F)F)c1 [Example 105, N-(3-acetylphenyl)-N′-{3-(trifluoromethyl)-1-[2-(trifluoromethyl)phenyl]-1H-pyrazol-5-yl}urea] | > 10 µM |
| O=C(NCc1cccc(C(F)(F)F)c1)c1cc(C(F)(F)F)nn1-c1ccccc1Cl [Example 106, 1-(2-chlorophenyl)-3-(trifluoromethyl)-N-{[3-(trifluoromethyl)phenyl]methyl}-1H-pyrazole-5-carboxamide] | > 10 µM |
| NS(=O)(=O)c1cccc(C#Cc2cc(C(F)(F)F)nn2-c2ccccc2Cl)c1 [Example 107, 3-{[1-(2-chlorophenyl)-3-(trifluoromethyl)-1H-pyrazol-5-yl]ethynyl}benzenesulfonamide] | 1 to 10 µM |
| CS(=O)(=O)c1cccc(C#Cc2cc(C(F)(F)F)nn2-c2ccccc2Cl)c1 [Example 108, 1-(2-chlorophenyl)-5-{[3-(methylsulfonyl)phenyl]ethynyl}-3-(trifluoromethyl)-1H-pyrazole] | < 1 µM |

| Structure (SMILES) | EC50 |
| --- | --- |
| CS(=O)(=O)c1ccc(C#Cc2cc(C(F)(F)F)nn2-c2ccccc2Cl)cc1 [Example 109, 1-(2-chlorophenyl)-5-{[4-(methylsulfonyl)phenyl]ethynyl}-3-(trifluoromethyl)-1H-pyrazole] | < 1 µM |
| CS(=O)(=O)Cc1ccc(C#Cc2cc(C(F)(F)F)nn2-c2ccccc2Cl)cc1 [Example 110, 1-(2-chlorophenyl)-5-({4-[(methylsulfonyl)methyl]phenyl}ethynyl)-3-(trifluoromethyl)-1H-pyrazole] | 1 to 10 µM |
| FC(F)(F)c1cc(COc2ccc(-c3ccccc3)cc2)n(-c2ccccc2Cl)n1 [Example 111, 5-[(biphenyl-4-yloxy)methyl]-1-(2-chlorophenyl)-3-(trifluoromethyl)-1H-pyrazole] | 1 to 10 µM |
| CS(=O)(=O)c1cccc(-c2ccc(OCc3nc(C(F)(F)F)cn3-c3c(Cl)cccc3Cl)cc2)c1 [Example 114, 1-(2,6-dichlorophenyl)-2-({[3′-(methylsulfonyl)biphenyl-4-yl]oxy}methyl)-4-(trifluoromethyl)-1H-imidazole] | < 1 µM |
| CS(=O)(=O)c1cccc(-c2ccc(COc3cc(C(F)(F)F)nn3-c3c(Cl)cccc3Cl)cc2)c1 [Example 116, 1-(2,6-dichlorophenyl)-5-({[3′-(methylsulfonyl)biphenyl-4-yl]methyl}oxy)-3-(trifluoromethyl)-1H-pyrazole] | < 1 µM |
| CS(=O)(=O)c1cccc(-c2ccc(COc3cc(C(F)(F)F)nn3-c3c(Cl)cccc3Cl)c(F)c2)c1 [Example 117, 1-(2,6-dichlorophenyl)-5-({[3-fluoro-3′-(methylsulfonyl)biphenyl-4-yl]methyl}oxy)-3-(trifluoromethyl)-1H-pyrazole] | < 1 µM |
| CS(=O)(=O)c1cccc(NC(=O)c2cc(C(F)(F)F)nn2-c2ccccc2Cl)c1 [Example 611, 1-(2-chlorophenyl)-N-[3-(methylsulfonyl)phenyl]-3-(trifluoromethyl)-1H-pyrazole-5-carboxamide] | > 10 µM |
| CS(=O)(=O)c1cccc(-c2ccc(OCc3cc(C(F)(F)F)nn3-c3c(Cl)cccc3Cl)cc2)c1 [Example 891, 1-(2,6-dichlorophenyl)-5-((3′-(methylsulfonyl)biphenyl-4-yloxy)methyl)-3-(trifluoromethyl)-1H-pyrazole] | < 1 µM |
| CS(=O)(=O)c1cccc(-c2ccc(OCc3cc(C(F)(F)F)nn3-c3ccccc3Cl)c(Cl)c2)c1 [Example 908, 5-({[3-chloro-3′-(methylsulfonyl)biphenyl-4-yl]oxy}methyl)-1-(2-chlorophenyl)-3-(trifluoromethyl)-1H-pyrazole] | 1 to 10 µM |
| Cc1cc(-c2cccc(S(C)(=O)=O)c2)ccc1OCc1cc(C(F)(F)F)nn1-c1ccccc1Cl [Example 909, 1-(2-chlorophenyl)-5-({[3-methyl-3′-(methylsulfonyl)biphenyl-4-yl]oxy}methyl)-3-(trifluoromethyl)-1H-pyrazole] | < 1 µM |
| Cc1cc(OCc2cc(C(F)(F)F)nn2-c2ccccc2Cl)ccc1-c1cccc(S(C)(=O)=O)c1 [Example 910, 1-(2-chlorophenyl)-5-({[2-methyl-3′-(methylsulfonyl)biphenyl-4-]oxy}methyl)-3-(trifluoromethyl)-1H-pyrazole] | 1 to 10 µM |
| CS(=O)(=O)c1cccc(-c2ccc(OCc3cc(C(F)(F)F)nn3-c3ccccc3Cl)cc2Cl)c1 [Example 911, 5-({[2-chloro-3′-(methylsulfonyl)biphenyl-4-yl]oxy}methyl)-1-(2-chlorophenyl)-3-(trifluoromethyl)-1H-pyrazole] | < 1 µM |
| FC(F)(F)c1cc(COc2ccc(-n3cccc3)cc2)n(-c2c(Cl)cccc2Cl)n1 [Example 922, 1-(2,6-dichlorophenyl)-5-({[4-(1H-pyrrol-1-yl)phenyl]oxy}methyl)-3-(trifluoromethyl)-1H-pyrazole] | < 1 µM |
| FC(F)(F)c1cc(COc2ccc(-n3ccnc3)cc2)n(-c2c(Cl)cccc2Cl)n1 [Example 923, 1-(2,6-dichlorophenyl)-5-({[4-(1H-imidazol-1-yl)phenyl]oxy}methyl)-3-(trifluoromethyl)-1H-pyrazole] | < 1 µM |
| FC(F)(F)c1cc(COc2ccc(-c3ccccc3)cc2)n(-c2c(Cl)cccc2Cl)n1 [Example 924, 5-[(biphenyl-4-yloxy)methyl]-1-(2,6-dichlorophenyl)-3-(trifluoromethyl)-1H-pyrazole] | 1 to 10 µM |
| CS(=O)(=O)c1cccc(-c2ccc(OCc3cc(C(F)(F)F)nn3-c3ccccc3Cl)c(F)c2)c1 [Example 925, 1-(2-chlorophenyl)-5-({[3-fluoro-3′-(methylsulfonyl)biphenyl-4-yl]oxy}methyl)-3-(trifluoromethyl)-1H-pyrazole] | < 1 µM |
| CS(=O)(=O)c1cccc(-c2ccc(OCc3cc(C(F)(F)F)nn3-c3ccccc3Cl)c(C#N)c2)c1 [Example 926, 4-({[1-(2-chlorophenyl)-3-(trifluoromethyl)-1H-pyrazol-5-yl]methyl}oxy)-3′-(methylsulfonyl)biphenyl-3-carbonitrile] | 1 to 10 µM |
